Experiments:
Tetranychus urticae = Tetranychus urticae spray test, OP-resistant; format: in vivo; settings: application rate 100 g/ha, all stages on bean leaf discs, after 6 days
Method: Solvent: 78.0 parts by weight of acetone • • 1.5 parts by weight of dimethylformamide Emulsifier: alkylaryl polyglycol ether […] To produce further test concentrations, the formulation is diluted with emulsifier-containing water. Discs of bean leaves (Phaseolus vulgaris) infested with all stages of the greenhouse red spider mite (Tetranychus urticae) are sprayed with an active ingredient formulation of the desired concentration.

Musca domestica = Musca domestica test; format: in vivo; settings: application rate 100 ppm, adult houseflies, kill after 2 days
Method: (§1) Solvent: dimethyl sulfoxide
(§2) To produce a suitable preparation of active compound, 10 mg of active compound are mixed with 0.5 ml of dimethyl sulfoxide, and the concentrate is diluted with water to the desired concentration.
Vessels containing a sponge treated with sugar solution and the active ingredient formulation of the desired concentration are populated with 10 adult houseflies (Musca domestica)).
After 2 days, the kill in % is determined. 100% means that all of the flies have been killed; 0% means that none of the flies have been killed.

Lucilia cuprina = Lucilia cuprina test; format: in vivo; settings: application rate 100 ppm, L1 larvae, kill after 2 days
Method: as §1, §2
About 20 L1 larvae of the Australian sheep blowfly (Lucilia cuprina) are transferred into a test vessel containing minced horsemeat and the active compound formulation of the desired concentration.
After 2 days, the kill in % is determined. 100% means that all the larvae have been killed; 0% means that no larvae have been killed.

Spodoptera frugiperda = Spodoptera frugiperda spray test; format: in vivo; settings: application rate 100 g/ha, caterpillars on maize leaf discs, after 7 days
Method: (§3) Solvent: 78.0 parts by weight of acetone • • 1.5 parts by weight of dimethylformamide Emulsifier: alkylaryl polyglycol ether […] To produce further test concentrations, the formulation is diluted with emulsifier-containing water. Leaf discs of maize (Zea mays) are sprayed with an active compound formulation of the desired concentration and, after drying, populated with caterpillars of the armyworm (Spodoptera frugiperda).

Phaedon cochleariae = Phaedon cochleariae spray test; format: in vivo; settings: application rate 100 g/ha, larvae on Chinese cabbage leaf discs, after 7 days
Method: as §3, with “Discs” for “Leaf discs”, “Chinese cabbage leaves (Brassica pekinensis)” for “maize (Zea mays)”, “ingredient” for “compound”, “larvae” for “caterpillars”, “mustard beetle (Phaedon cochleariae).” for “armyworm (Spodoptera frugiperda).”

Ctenocephalides felis = Ctenocephalides felis oral test; format: in vivo; settings: application rate 100 ppm in citrated cattle blood, kill after 2 days
Description: Solvent: dimethyl sulfoxide […] Dilution with citrated cattle blood gives the desired concentration. About 20 unfed adult cat fleas (Ctenocephalides felis) are placed into a chamber which is closed at the top and bottom with gauze. A metal cylinder whose bottom end is closed with parafilm is placed onto the chamber. The cylinder contains the blood/active ingredient formulation, which can be imbibed by the fleas through the parafilm membrane.

Boophilus microplus = Boophilus microplus injection test; format: in vivo; settings: application rate 20 μg/animal, after 7 days, laying of fertile eggs
Method: Solvent: dimethyl sulfoxide […] The animals are transferred into dishes and kept in a climate-controlled room. Efficacy is assessed after 7 days by laying of fertile eggs. Eggs which are not visibly fertile are stored in a climate-controlled cabinet until the larvae hatch after about 42 days.

[1] = logP determination by HPLC on reversed-phase column (EEC Directive 79/831 Annex V.A8); format: physicochemical
[2] = Table 1, HPLC C18, acetonitrile/water with formic acid
[3] = Table 3 intermediates, HPLC C18, acetonitrile/water with formic acid

| lgP [1, 2] | lgP ([1]; synthesis example) | SMILES | efficacy (Tetranychus urticae) | efficacy (Musca domestica) | efficacy (Lucilia cuprina) | efficacy (Spodoptera frugiperda) | efficacy (Phaedon cochleariae) | efficacy (Ctenocephalides felis) | efficacy (Boophilus microplus) | lgP [1, 3] |
| --- | --- | --- | --- | --- | --- | --- | --- | --- | --- | --- |
| – | – | Cc1cc(C(F)(C(F)(F)F)C(F)(F)F)cc(C(F)(F)F)c1-n1cc(-c2cc(NC(=O)c3ccnc(F)c3)ccc2F)cn1 [Example 2-1] | 90% | 100% | 98% | 100% | 100% | 95% | 100% | – |
| – | – | Cc1cc(C(F)(C(F)(F)F)C(F)(F)F)cc(C(F)(F)F)c1-n1cc(-c2cc(NC(=O)c3ccncc3)ccc2F)cn1 [Example 2-2] | 90% | 90% | 98% | 100% | 100% | 95% | 100% | – |
| – | – | Cc1cc(C(F)(C(F)(F)F)C(F)(F)F)cc(C(F)(F)F)c1-n1cc(-c2cc(NC(=O)c3cnco3)ccc2F)cn1 [Example 2-11] | – | – | 100% | 100% | 100% | 100% | 100% | – |
| lgP 5.59 | – | Cc1cc(C(F)(C(F)(F)F)C(F)(F)F)cc(C)c1-n1cc(-c2ccc(Cl)c(NC(=O)c3cccc(F)c3)c2)cn1 [Example 8] | – | – | – | – | – | – | 100% | – |
| lgP 6.06 | – | Cc1cc(C(F)(C(F)(F)F)C(F)(F)F)cc(C)c1-n1cc(-c2ccc(Cl)c(NC(=O)c3ccccc3F)c2)cn1 [Example 10] | – | – | – | – | – | – | 100% | – |
| – | – | COc1cc(C(=O)Nc2cc(-c3cnn(-c4c(Cl)cc(C(F)(C(F)(F)F)C(F)(F)F)cc4Cl)c3)ccc2F)ccc1F [Example 22] | 100% | 100% | 100% | 100% | 100% | 100% | 100% | – |
| – | – | Cc1cc(C(F)(C(F)(F)F)C(F)(F)F)cc(C(F)(F)F)c1-n1cc(-c2ccc(F)c(NC(=O)c3cccs3)c2F)cn1 [Example 26] | – | – | 100% | 100% | 100% | 100% | 100% | – |
| – | – | Cc1cc(C(F)(C(F)(F)F)C(F)(F)F)cc(C(F)(F)F)c1-n1cc(-c2ccc(N(C)C)c(NC(=O)C3(C)CC3)c2)cn1 [Example 36] | – | – | 100% | 100% | 100% | 100% | 100% | – |
| – | – | Cc1cc(C(F)(C(F)(F)F)C(F)(F)F)cc(C(F)(F)F)c1-n1cc(-c2ccc(N(C)C)c(NC(=O)c3ccsc3)c2)cn1 [Example 37] | – | – | 100% | 100% | 100% | 100% | 100% | – |
| – | – | Cc1cc(C(F)(C(F)(F)F)C(F)(F)F)cc(C(F)(F)F)c1-n1cc(-c2ccc(F)c(NC(=O)c3ccc(F)nc3)c2)cn1 [Example 39] | 100% | 100% | 100% | 100% | 100% | 100% | 100% | – |
| – | – | Cc1cc(C(F)(C(F)(F)F)C(F)(F)F)cc(C(F)(F)F)c1-n1cc(-c2ccc(F)c(NC(=O)c3ccc(F)nc3)c2F)cn1 [Example 40] | 100% | 100% | 100% | 100% | 100% | 100% | 100% | – |
| – | – | Cc1cc(C(F)(C(F)(F)F)C(F)(F)F)cc(C(F)(F)F)c1-n1cc(-c2ccc(F)c(N(C)C(=O)c3ccc(F)nc3)c2F)cn1 [Example 41] | – | 100% | 100% | 83% | 100% | 100% | 100% | – |
| – | – | Cc1cc(C(F)(C(F)(F)F)C(F)(F)F)cc(C(F)(F)F)c1-n1cc(-c2ccc(F)c(N(C)C(=O)c3ccc(F)nc3)c2)cn1 [Example 48] | – | 100% | 100% | 100% | 100% | 100% | 100% | – |
| – | – | Cc1cc(C(F)(C(F)(F)F)C(F)(F)F)cc(C(F)(F)F)c1-n1cc(-c2ccc(F)c(NC(=O)c3ccc(Cl)nc3)c2)cn1 [Example 49] | – | 100% | 100% | 100% | 100% | 100% | – | – |
| – | – | Cc1ccc(C(=O)Nc2cc(-c3cnn(-c4c(C)cc(C(F)(C(F)(F)F)C(F)(F)F)cc4C(F)(F)F)c3)ccc2F)cc1C [Example 52] | – | 100% | – | – | – | – | 100% | – |
| – | – | Cc1cc(C(=O)Nc2cc(-c3cnn(-c4c(C)cc(C(F)(C(F)(F)F)C(F)(F)F)cc4C(F)(F)F)c3)ccc2F)ccc1F [Example 53] | – | 100% | – | – | – | 100% | 100% | – |
| – | – | Cc1cc(C(F)(C(F)(F)F)C(F)(F)F)cc(C(F)(F)F)c1-n1cc(-c2ccc(F)c(NC(=O)C3CSC3)c2F)cn1 [Example 65] | 100% | 100% | 100% | 100% | 100% | 100% | 80% | – |
| – | – | Cc1cc(C(F)(C(F)(F)F)C(F)(F)F)cc(C(F)(F)F)c1-n1cc(-c2cccc(NC(=O)c3ccc(Cl)nc3)c2F)cn1 [Example 70] | – | 100% | 100% | 100% | 100% | 100% | 100% | – |
| – | – | COc1cccc(C(=O)Nc2cccc(-c3cnn(-c4c(C)cc(C(F)(C(F)(F)F)C(F)(F)F)cc4C(F)(F)F)c3)c2F)c1 [Example 73] | – | – | 100% | 100% | 100% | 100% | 100% | – |
| – | – | Cc1cc(C(F)(C(F)(F)F)C(F)(F)F)cc(C(F)(F)F)c1-n1cc(-c2cccc(NC(=O)c3cccs3)c2F)cn1 [Example 76] | – | – | 100% | 100% | 100% | 100% | 100% | – |
| – | – | O=[N+]([O-])c1cccc(-c2cnn(-c3c(Cl)cc(C(F)(F)F)cc3Cl)c2)c1 [II-1] | – | – | – | – | – | – | – | lgP 4.32 |
| – | 5.39 | Cc1cc(C(F)(C(F)(F)F)C(F)(F)F)cc(C)c1-n1cc(-c2ccc(Cl)c([N+](=O)[O-])c2)cn1 [II-7, 4-(4-chloro-3-nitrophenyl)-1-[2,6-dimethyl-4-[1,2,2,2-tetrafluoro-1-(trifluoromethyl)ethyl]phenyl]pyrazole] | – | – | – | – | – | – | – | lgP 5.39 |
| – | – | Nc1cccc(-c2cnn(-c3c(Cl)cc(C(F)(F)F)cc3Cl)c2)c1 [III-1] | – | – | – | – | – | – | – | lgP 2.90 |
| – | 4.93 | Cc1cc(C(F)(C(F)(F)F)C(F)(F)F)cc(C)c1-n1cc(-c2ccc(Cl)c(N)c2)cn1 [III-7, 2-chloro-5-[1-[2,6-dimethyl-4-[1,2,2,2-tetrafluoro-1-(trifluoromethyl)ethyl]phenyl]pyrazol-4-yl]aniline] | – | – | – | – | – | – | – | lgP 4.93 |
| – | – | Cc1cc(C(F)(C(F)(F)F)C(F)(F)F)cc(C)c1-n1cc(-c2ccc(F)c(N)c2)cn1 [III-8] | – | – | – | – | – | – | – | lgP 4.47 |
| – | – | Cc1cc(C(F)(C(F)(F)F)C(F)(F)F)cc(C)c1-n1cc(-c2ccc(F)c(N)c2F)cn1 [III-9] | – | – | – | – | – | – | – | lgP 4.81 |
| – | – | Cc1cc(C(F)(C(F)(F)F)C(F)(F)F)cc(C)c1-n1cc(-c2cccc(N)c2F)cn1 [III-10] | – | – | – | – | – | – | – | lgP 4.61 |
